Biological target: T1, human glucagon receptor (Homo sapiens, UniProt P47871)
T1 construct: made in house; host or cells: FreeStyle CHO cells, transient transfection with pMSRαneo/hGCGR; membrane fraction (35,000 rpm pellet)
Assay: Glucagon binding inhibitory activity ([125I]-glucagon binding to glucagon receptor membrane protein)
Details: test compound 10 μM; 0.4% DMSO = 0%, non-labeled glucagon 1 μM = 100%; read-out: inhibitory rate (%) at 10 μM
Protocol: The glucagon binding inhibitory action of the compound of the present invention was evaluated by the following method.
(1) Cloning of Human Glucagon Receptor Gene
Human glucagon receptor gene was cloned by PCR reaction using human pancreas Marathon-ready cDNA (Clontech) as a template and the following primer set.
PCR reaction was performed using Advantage 2 polymerase (Clontech) and according to the attached protocol. The obtained PCR product was electrophoresed on an agarose gel (1%). An about 1.4 kb of DNA fragment containing a glucagon receptor gene was recovered from the gel and digested with restriction enzymes EcoRI and NotI. DNA treated with the restriction enzymes was electrophoresed on an agarose gel (1%). An about 1.4 kb of DNA fragment was recovered and ligated to plasmid pMSRαneo digested with restriction enzymes EcoRI and NotI to construct a human-type glucagon receptor expression plasmid DNA “pMSRαneo/hGCGR”.
(2) Preparation of Glucagon Receptor Membrane Protein
A human-type glucagon receptor was expressed using FreeStyle CHO Expression System (Invitrogen). A transient expression in FreeStyle CHO cell was performed using a human-type glucagon receptor expression plasmid DNA “pMSRαneo/hGCGR” and according to the manual attached to the FreeStyle CHO Expression System. The above-mentioned DNA was transfected and the cultured with shaking for 2 days (37° C., 8% CO2, 125 rpm). 2400 ml of culture medium was centrifuged at 2,000 rpm for 10 min and the cells were collected. The collected cells were washed with PBS, suspended in homogenate buffer [10 mM NaHCO3 (pH 7.4), 1 mM EDTA, Complete EDTA-free (Roche, 1 tablet/50 ml)] and disrupted by polytron cell disrupter (Kinematica AG). Disruption solution was centrifuged at 2,000 rpm for 10 min and the supernatant was collected.
(3) Measurement of Glucagon Binding Inhibitory Activity
The plate was stood for 90 min at room temperature. The reaction solution was transferred from the reaction plate to a 96 well unifilter GF/C plate (Perkin Elmer Inc.) using a cell harvester (Perkin Elmer Inc.) and the membrane fraction was collected on the filter by suction. The filter was presoaked in 2 mg/ml of polyethyleneimine to prevent non-specific adsorption of labeled ligand. The filter was washed 4 times with a reaction buffer and dried for 2 hr at 42° C. To each well was added 25 μl of scintillator (MicroScint0; Perkin Elmer Inc.), and the fluorescence amount was measured using a microplate scintillation counter (TopCount NXT™; Perkin Elmer Inc.).
In addition, the inhibitory rate (%) of the well added with the test compound (10 μM; containing 0.4% DMSO) was calculated, using the reaction rate of the well added only with 0.4% DMSO as 0% inhibitory rate, and the reaction rate of the well added with non-labeled glucagon (final concentration 1 μM) as 100% inhibitory rate.

T1 sequence (P47871 26-477): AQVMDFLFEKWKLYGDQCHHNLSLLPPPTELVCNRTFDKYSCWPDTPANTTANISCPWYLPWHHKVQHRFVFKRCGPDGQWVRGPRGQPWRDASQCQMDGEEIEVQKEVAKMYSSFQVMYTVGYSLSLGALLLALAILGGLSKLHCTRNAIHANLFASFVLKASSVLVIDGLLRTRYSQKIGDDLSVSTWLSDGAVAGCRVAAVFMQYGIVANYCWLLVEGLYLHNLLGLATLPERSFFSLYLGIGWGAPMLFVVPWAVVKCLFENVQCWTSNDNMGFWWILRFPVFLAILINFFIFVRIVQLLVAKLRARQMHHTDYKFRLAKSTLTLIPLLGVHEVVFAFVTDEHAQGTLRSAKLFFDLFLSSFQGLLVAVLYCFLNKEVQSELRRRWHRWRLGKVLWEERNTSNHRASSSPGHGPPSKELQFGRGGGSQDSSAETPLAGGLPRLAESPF

Compound | inhibition at 10 µM [%]
COc1ccc2c(C(Nc3ccc(C(=O)N(C)CCC(=O)O)cc3)C3CCCCC3)c(C)oc2c1 (centres unmarked) [Example A215, 3-{[(4-{[cyclohexyl(6-methoxy-2-methyl-1-benzofuran-3-yl)methyl]amino}phenyl)carbonyl](methyl)amino}propanoic acid] | 72
CCC(CC)C(Nc1ccc(C(=O)N(C)CCC(=O)O)cc1)c1oc2ccc(OC)cc2c1C (centres unmarked) [Example A105, 3-{[(4-{[2-ethyl-1-(5-methoxy-3-methyl-1-benzofuran-2-yl)butyl]amino}phenyl)carbonyl](methyl)amino}propanoic acid] | 67
Cc1c(C(Nc2ccc(C(=O)NCCC(=O)O)cc2)C2CCCC2)oc2ccc(F)cc12 (centres unmarked) [Example A190, 3-{[(4-{[cyclopentyl(5-fluoro-3-methyl-1-benzofuran-2-yl)methyl]amino}phenyl)carbonyl]amino}propanoic acid] | 86
Cc1cc(F)ccc1-n1cc(C(Nc2ccc(C(=O)NCCC(=O)O)cc2)C2CCCCC2)c(C)n1 (centres unmarked) [Example 21, 3-({[4-({[1-(4-fluoro-2-methylphenyl)-3-methyl-1H-pyrazol-4-yl](cyclohexyl)methyl}amino)phenyl]carbonyl}amino)propanoic acid] | 77
Cc1c(C(Nc2ccc(C(=O)N(C)CCC(=O)O)cc2)C2CCCCC2)oc2ccc(N3CCOCC3)cc12 (centres unmarked) [Example A186, 3-[{[4-({cyclohexyl[3-methyl-5-(morpholin-4-yl)-1-benzofuran-2-yl]methyl}amino)phenyl]carbonyl}(methyl)amino]propanoic acid] | 85
COc1ccc2oc(C(Nc3ccc(C(=O)NCCC(=O)O)cc3)C3CCCCC3)c(Br)c2c1 (centres unmarked) [Example A102, 3-{[(4-{[(3-bromo-5-methoxy-1-benzofuran-2-yl)(cyclohexyl)methyl]amino}phenyl)carbonyl]amino}propanoic acid] | 68
COc1ccc(-n2cc(C(Nc3ccc(C(=O)NCCC(=O)O)cc3)C3CCCCC3)c(CN3CCOCC3)n2)cc1 (centres unmarked) [Example 68, 3-({[4-({cyclohexyl[1-(4-methoxyphenyl)-3-(morpholin-4-ylmethyl)-1H-pyrazol-4-yl]methyl}amino)phenyl]carbonyl}amino)propanoic acid] | 66
COCc1nn(-c2cccc(C(F)(F)F)n2)cc1C(Nc1ccc(C(=O)N(C)CCC(=O)O)cc1)C1CCCCC1 (centres unmarked) [Example 90, 3-[({4-[(cyclohexyl{3-(methoxymethyl)-1-[6-(trifluoromethyl)pyridin-2-yl]-1H-pyrazol-4-yl}methyl)amino]phenyl}carbonyl)(methyl)amino]propanoic acid] | 66
CCOc1cccc(-n2cc(C(Nc3ccc(C(=O)NCCC(=O)O)cc3)C3CCCCC3)c(CC)n2)c1 (centres unmarked) [Example 84, 3-({[4-({cyclohexyl[1-(3-ethoxyphenyl)-3-ethyl-1H-pyrazol-4-yl]methyl}amino)phenyl]carbonyl}amino)propanoic acid] | 76
CN(CCC(=O)O)C(=O)c1ccc(NC(c2csc3ccccc23)C2CCCCC2)cc1 (centres unmarked) [Example A2, 3-{[(4-{[1-benzothiophen-3-yl(cyclohexyl)methyl]amino}phenyl)carbonyl](methyl)amino}-propanoic acid] | 64
COc1ccc(-n2cc(C(Nc3ccc(C(=O)NCCC(=O)O)cc3)C3CCCCC3)c(C3CC3)n2)cc1 (centres unmarked) [Example 46, 3-({[4-({cyclohexyl[3-cyclopropyl-1-(4-methoxyphenyl)-1H-pyrazol-4-yl]methyl}amino)phenyl]carbonyl}amino)propanoic acid] | 71

Continued, values first:

inhibition at 10 µM [%] | Compound
72 | O=C(O)CCNC(=O)c1ccc(NC(c2cn(-c3ccccc3)nc2CCc2ccccc2)C2CCCCC2)cc1 (centres unmarked) [Example 15, 3-({[4-({cyclohexyl[1-phenyl-3-(2-phenylethyl)-1H-pyrazol-4-yl]methyl}amino)phenyl]carbonyl}amino)propanoic acid]
87 | O=C(O)CCNC(=O)c1ccc(NC(c2cc3ccccc3s2)C2CCCCC2)cc1 (centres unmarked) [Example A6, 3-{[(4-{[1-benzothiophen-2-yl(cyclohexyl)methyl]amino}phenyl)carbonyl]amino}propanoic acid]
74 | CCc1nn(-c2ccc(C(F)(F)F)cn2)cc1C(Nc1ccc(C(=O)NCCC(=O)O)cc1)C1CCCCC1 (centres unmarked) [Example 3, 3-[({4-[(cyclohexyl{3-ethyl-1-[5-(trifluoromethyl)pyridin-2-yl]-1H-pyrazol-4-yl}methyl)amino]phenyl}carbonyl)amino]propanoic acid]
78 | COc1cc(OC)cc(-n2cc(C(Nc3ccc(C(=O)NCCC(=O)O)cc3)C3CCCCC3)c(C)n2)c1 (centres unmarked) [Example 82, 3-({[4-({cyclohexyl[1-(3,5-dimethoxyphenyl)-3-methyl-1H-pyrazol-4-yl]methyl}amino)phenyl}carbonyl]amino)propanoic acid]
76 | COc1ccc2oc(C(CC(C)C)Nc3ccc(C(=O)NCCC(=O)O)cc3)c(C)c2c1 (centres unmarked) [Example A92, 3-{[(4-{[1-(5-methoxy-3-methyl-1-benzofuran-2-yl)-3-methylbutyl]amino}phenyl)carbonyl]amino}propanoic acid]
80 | Cc1c(C(Nc2ccc(C(=O)NCCC(=O)O)cc2)C(C)C)oc2ccc(F)cc12 (centres unmarked) [Example A193, 3-{[(4-{[1-(5-fluoro-3-methyl-1-benzofuran-2-yl)-2-methylpropyl]amino}phenyl)carbonyl]amino}propanoic acid]
72 | Cc1nn(-c2ccc(OC(F)(F)F)cc2)cc1C(Nc1ccc(C(=O)N(C)CCC(=O)O)cc1)C1CCCCC1 (centres unmarked) [Example 26, 3-[({4-[(cyclohexyl{3-methyl-1-[4-(trifluoromethoxy)phenyl]-1H-pyrazol-4-yl}methyl)amino]phenyl}carbonyl)(methyl)amino]propanoic acid]
78 | Cc1nn(-c2ccc(OC(F)(F)F)cc2)cc1C(Nc1ccc(C(=O)NCCC(=O)O)cc1)C1CCCCC1 (centres unmarked) [Example 25, 3-[({4-[(cyclohexyl{3-methyl-1-[4-(trifluoromethoxy)phenyl]-1H-pyrazol-4-yl}methyl)amino]phenyl}carbonyl)amino]propanoic acid]
70 | Cc1c(C(CC(C)C)Nc2ccc(C(=O)N(C)CCC(=O)O)cc2)oc2ccccc12 (centres unmarked) [Example A24, 3-{methyl[(4-{[3-methyl-1-(3-methyl-1-benzofuran-2-yl)butyl]amino}phenyl)carbonyl]amino}propanoic acid]
76 | CCC(CC)C(Nc1ccc(C(=O)N(C)CCC(=O)O)cc1)c1sc2ccccc2c1C (centres unmarked) [Example A135, 3-{[(4-{[2-ethyl-1-(3-methyl-1-benzothiophen-2-yl)butyl]amino}phenyl)carbonyl](methyl)amino}propanoic acid]
71 | CC(C)(C)c1nn(-c2ccc(C(F)(F)F)cn2)cc1C(Nc1ccc(C(=O)NCCC(=O)O)cc1)C1CCCCC1 (centres unmarked) [Example 13, 3-{[(4-{[{3-tert-butyl-1-[5-(trifluoromethyl)pyridin-2-yl]-1H-pyrazol-4-yl}(cyclohexyl)methyl]amino}phenyl)carbonyl]amino}propanoic acid]
74 | Cc1c(C(Nc2ccc(C(=O)N(C)CCC(=O)O)cc2)C(C)C)oc2ccc(C3CC3)cc12 (centres unmarked) [Example A184, 3-{[(4-{[1-(5-cyclopropyl-3-methyl-1-benzofuran-2-yl)-2-methylpropyl]amino}phenyl)carbonyl](methyl)amino}propanoic acid]
76 | Cc1c(C(Nc2ccc(C(=O)N(C)CCC(=O)O)cc2)C2CCCCC2)oc2ccc(OCCCS(C)(=O)=O)cc12 (centres unmarked) [Example A152, 3-[({4-[(cyclohexyl{3-methyl-5-[3-(methylsulfonyl)propoxy]-1-benzofuran-2-yl}methyl)amino]phenyl}carbonyl)(methyl)amino]propanoic acid]
78 | Cc1c(C(Nc2ccc(C(=O)NCCC(=O)O)cc2)C2CCCCC2)oc2ccc(F)cc12 (centres unmarked) [Example A39, 3-{[(4-{[cyclohexyl(5-fluoro-3-methyl-1-benzofuran-2-yl)methyl]amino}phenyl)carbonyl]amino}propanoic acid]
58 | COc1ccc2oc(C(Nc3ccc(C(=O)N(C)CCC(=O)O)cc3)C3CCCCC3)c(C#N)c2c1 (centres unmarked) [Example A109, 3-{[(4-{[(3-cyano-5-methoxy-1-benzofuran-2-yl)(cyclohexyl)methyl]amino}phenyl)carbonyl](methyl)amino}-propanoic acid]

From patent publication US8436043B2 (Takeda Pharmaceutical Company Limited, priority 2008, dated 2013)
